Test results published in EPA's ToxRefDB 2.

How the values were obtained:
mouse [1] = conditions: Carcinogenicity, b6c3f1, Oral, Gavage/Intubation, dose end: 60 week, group: systemic
rat [2] = conditions: Carcinogenicity; other; Oral; Gavage/Intubation; dose end: 78 week; group: systemic; systemic / in life observation / body weight / body weight gain + systemic / pathology microscopic / kidney / nephropathy + systemic / …
rat [3] = conditions: Multigenerational reproductive toxicity study, other, Oral, Gavage/Intubation, dose end: 2 generation
mouse [4] = conditions: Subchronic oral toxicity in rodents, b6c3f1, Feed, dose end: 91 day, group: systemic, systemic / in life observation / body weight / body weight gain
rat [5] = conditions: Subchronic oral toxicity in rodents, fischer, Feed, dose end: 26 week, group: systemic
rat [6] = conditions: Multigenerational reproductive toxicity study, other, Oral, Gavage/Intubation, dose end: 2 generation; remark: listed apart in the source
rat [7] = conditions: Prenatal developmental toxicity study, sprague dawley, Oral, Feed, dose end: 15 GD
mouse [8] = conditions: Prenatal developmental toxicity study, cd1, Oral, Feed, dose end: 15 GD
mouse [9] = conditions: Carcinogenicity; b6c3f1; Oral; Feed; dose end: 2 year; group: systemic; systemic / in life observation / body weight / body weight
rat [10] = conditions: Combined chronic toxicity/carcinogenicity, fischer, Oral, Feed, dose end: 2 year, group: systemic
rat [11] = conditions: Fertility (Segment I), fischer, Oral, Feed, dose end: 16 weeks (premating)
rat [12] = conditions: Combined chronic toxicity/carcinogenicity, fischer, Oral, Feed, dose end: 2 year, group: systemic; remark: listed apart in the source
rat [13] = conditions: Prenatal developmental toxicity study, sprague dawley, Oral, Gavage/Intubation, dose end: 17 GD
rat [14] = conditions: Sub-acute repeat dose toxicity; sprague dawley; Oral; Gavage/Intubation; dose end: 28 day; group: systemic; systemic / in life observation / body weight / body weight gain + systemic / in life observation / clinical signs / alopecia + systemic / in…
rat [15] = conditions: Chronic toxicity, sprague dawley, Oral, Gavage/Intubation, dose end: 6 month, group: systemic
rat [16] = conditions: Prenatal developmental toxicity study, sprague dawley, Oral, Gavage/Intubation, dose end: 17 GD; remark: listed apart in the source
rat [17] = conditions: Fertility (Segment I); sprague dawley; Oral; Gavage/Intubation; dose end: 7 GD; group: parental; systemic / in life observation / body weight / body weight gain + systemic / in life observation / clinical signs / motor activity + …
dog [18] = conditions: Chronic toxicity, beagle, Oral, Gavage/Intubation, dose end: 6 month, group: systemic
rabbit [19] = conditions: Prenatal developmental toxicity study, himalayan, Oral, Gavage/Intubation, dose end: 19 GD
dog [20] = conditions: Sub-acute repeat dose toxicity, beagle, Oral, Capsule, dose end: 4 week, group: systemic
rabbit [21] = conditions: Prenatal developmental toxicity study, himalayan, Oral, Gavage/Intubation, dose end: 19 GD; remark: listed apart in the source
dog [22] = conditions: Chronic toxicity, beagle, Oral, Gavage/Intubation, dose end: 1 year, group: systemic
[23] = systemic / pathology microscopic / kidney / nephropathy
[24] = systemic / pathology microscopic / kidney / nephropathy + systemic / pathology microscopic / stomach / squamous cell carcinoma + systemic / …
[25] = group: offspring, systemic / clinical chemistry / triiodothyronine (t3) / triiodothyronine (t3), total + systemic / in life observation / body weight / …
[26] = group: parental, systemic / in life observation / clinical signs / salivation + systemic / organ weight / kidney / absolute + systemic / organ weight / …
[27] = group: reproductive, reproductive / offspring survival early / live fetuses / live fetuses
[28] = systemic / hematology / anemia / anemia - macrocytic + systemic / hematology / erythrocyte (rbc) count differential / erythrocyte (rbc) + …
[29] = group: offspring, developmental / developmental landmark / anogenital distance (agd) / anogenital distance (agd)
[30] = group: reproductive, reproductive / reproductive performance / fertility / fertility
[31] = group: developmental, developmental / developmental malformation / bone / [other] + developmental / developmental malformation / bone / bipartite ossification + …
[32] = group: maternal, reproductive / reproductive performance / resorptions / resorptions + systemic / in life observation / body weight / body weight + systemic…
[33] = group: maternal, systemic / in life observation / body weight / body weight + systemic / in life observation / body weight / body weight gain + systemic / in…
[34] = group: developmental, developmental / developmental malformation / bone / exencephaly + developmental / developmental malformation / bone / [other] + …
[35] = group: maternal, reproductive / offspring survival early / litter size / litter size + reproductive / offspring survival early / live fetuses / live fetuses…
[36] = systemic / organ weight / kidney / relative to body weight
[37] = group: maternal, reproductive / reproductive performance / fertility / fertility
[38] = group: parental, systemic / hematology / erythrocyte (rbc) count differential / erythrocyte (rbc) + systemic / hematology / hemoglobin (hgb) / hemoglobin (…
[39] = systemic / in life observation / body weight / body weight + systemic / in life observation / food consumption / food consumption + systemic…
[40] = systemic / pathology gross / full gross necropsy / leukemia mononuclear + systemic / in life observation / body weight / body weight + …
[41] = group: developmental, developmental / developmental malformation / bone / [other] + developmental / developmental malformation / bone / absent + developmental / …
[42] = group: maternal, systemic / in life observation / body weight / body weight gain + systemic / in life observation / food consumption / food consumption + …
[43] = systemic / in life observation / clinical signs / convulsions + systemic / in life observation / mortality / mortality + systemic / …
[44] = systemic / pathology microscopic / adrenal gland / dilatation + systemic / pathology microscopic / thyroid gland / hyperplasia + systemic / …
[45] = group: developmental, systemic / in life observation / body weight / fetal weight
[46] = group: maternal, reproductive / reproductive performance / postimplantation loss / postimplantation loss + reproductive / reproductive performance / …
[47] = systemic / in life observation / body weight / body weight gain + systemic / in life observation / clinical signs / vomitting
[48] = systemic / in life observation / body weight / body weight gain + systemic / in life observation / clinical signs / vomitting + systemic / …
[49] = systemic / in life observation / body weight / body weight gain + systemic / in life observation / food consumption / food consumption + …
[50] = systemic / pathology microscopic / larynx / inflammation
[51] = group: maternal, systemic / in life observation / food consumption / food consumption
[52] = group: maternal, systemic / in life observation / food consumption / food consumption + systemic / in life observation / body weight / body weight + systemic…
[53] = systemic / in life observation / body weight / body weight gain + systemic / pathology microscopic / eye / opacity
[54] = systemic / in life observation / clinical signs / convulsions + systemic / in life observation / clinical signs / general pallor + systemic…

## ClCC(Br)CBr (configuration not stated) [1,2-Dibromo-3-chloropropane]
Mouse [1]; [23]
  LOAEL: 110 mg/kg/day
  NOAEL: < 110 mg/kg/day
Mouse [1]; [24]
  LEL: 110 mg/kg/day
  NEL: < 110 mg/kg/day
Rat [2]
  LEL: 15 mg/kg/day
  LOAEL: 15 mg/kg/day
  NEL: < 15 mg/kg/day
  NOAEL: < 15 mg/kg/day

## CCCCOC(=O)c1ccccc1C(=O)OCc1ccccc1 [Butyl benzyl phthalate]
Rat [3]; [25]
  LEL: 100 mg/kg/day
  LOAEL: > 500 mg/kg/day
  NEL: 20 mg/kg/day
  NOAEL: ≥ 500 mg/kg/day
Rat [3]; [26]
  LEL: 100 mg/kg/day
  LOAEL: > 500 mg/kg/day
  NEL: 20 mg/kg/day
  NOAEL: ≥ 500 mg/kg/day
Rat [3]; [27]
  LEL: 500 mg/kg/day
  LOAEL: > 500 mg/kg/day
  NEL: 100 mg/kg/day
  NOAEL: ≥ 500 mg/kg/day
Mouse [4]
  LEL: 240 mg/kg/day
  LOAEL: > 3750 mg/kg/day
  NEL: < 240 mg/kg/day
  NOAEL: ≥ 3750 mg/kg/day
Rat [5]; [28]
  LOAEL: 1250 mg/kg/day
  NEL: 60 mg/kg/day
  NOAEL: 550 mg/kg/day
Rat [5]; systemic / hematology / erythrocyte (rbc) count differential / erythrocyte (rbc)
  LEL: 180 mg/kg/day
Rat [6]; [29]
  LEL: 100 mg/kg/day
  LOAEL: 100 mg/kg/day
  NEL: < 100 mg/kg/day
  NOAEL: < 100 mg/kg/day
Rat [6]; group: parental, systemic / in life observation / clinical signs / salivation + systemic / organ weight / kidney / absolute + systemic / organ weight / liver…
  LEL: 200 mg/kg/day
Rat [6]; [26]
  LOAEL: > 400 mg/kg/day
  NEL: 100 mg/kg/day
  NOAEL: ≥ 400 mg/kg/day
Rat [6]; [30]
  LEL: 400 mg/kg/day
  LOAEL: > 400 mg/kg/day
  NEL: 200 mg/kg/day
  NOAEL: ≥ 400 mg/kg/day
Rat [7]; [31]
  LOAEL: > 1640 mg/kg/day
  NEL: 420 mg/kg/day
  NOAEL: ≥ 1640 mg/kg/day
Rat [7]; group: developmental, developmental / developmental malformation / bone / short supernumerary
  LEL: 1100 mg/kg/day
Rat [7]; [32]
  LOAEL: > 1640 mg/kg/day
  NEL: 420 mg/kg/day
  NOAEL: ≥ 1640 mg/kg/day
Rat [7]; [33]
  LEL: 1100 mg/kg/day
Mouse [8]; group: developmental, developmental / developmental malformation / bone / exencephaly
  LEL: 910 mg/kg/day
Mouse [8]; [34]
  LOAEL: > 2330 mg/kg/day
  NEL: 182 mg/kg/day
  NOAEL: ≥ 2330 mg/kg/day
Mouse [8]; group: maternal, reproductive / offspring survival early / litter size / litter size + reproductive / offspring survival early / live fetuses / live fetuses
  LEL: 910 mg/kg/day
Mouse [8]; [35]
  LOAEL: > 2330 mg/kg/day
  NEL: 182 mg/kg/day
  NOAEL: ≥ 2330 mg/kg/day
Mouse [9]
  LEL: 900 mg/kg/day
  LOAEL: 900 mg/kg/day
  NEL: < 900 mg/kg/day
  NOAEL: < 900 mg/kg/day
Rat [10]; systemic / in life observation / body weight / body weight + systemic / pathology microscopic / pancreas / hyperplasia
  LOAEL: 500 mg/kg/day
Rat [10]; systemic / in life observation / body weight / body weight + systemic / pathology microscopic / pancreas / hyperplasia + systemic / …
  NOAEL: 240 mg/kg/day
Rat [10]; [36]
  LEL: 120 mg/kg/day
  NEL: < 120 mg/kg/day
Rat [11]; [37]
  LEL: 2200 mg/kg/day
  LOAEL: > 2200 mg/kg/day
  NEL: 200 mg/kg/day
  NOAEL: ≥ 2200 mg/kg/day
Rat [11]; [38]
  LOAEL: > 2200 mg/kg/day
  NEL: 20 mg/kg/day
  NOAEL: ≥ 2200 mg/kg/day
Rat [11]; group: parental, systemic / pathology gross / sperm measure / sperm count
  LEL: 200 mg/kg/day
Rat [12]; [39]
  LEL: 300 mg/kg/day
  NEL: < 300 mg/kg/day
Rat [12]; [40]
  LOAEL: > 600 mg/kg/day
  NOAEL: ≥ 600 mg/kg/day

## O=C(Oc1ccc(Br)cc1)N1CCN2CCC1CC2
Rat [13]; [41]
  LOAEL: 50 mg/kg/day
  NEL: 5 mg/kg/day
  NOAEL: 20 mg/kg/day
Rat [13]; group: developmental, developmental / developmental malformation / bone / incomplete ossification
  LEL: 20 mg/kg/day
Rat [13]; [42]
  LOAEL: 50 mg/kg/day
  NEL: 5 mg/kg/day
  NOAEL: 20 mg/kg/day
Rat [13]; group: maternal, systemic / organ weight / uterus / nos
  LEL: 20 mg/kg/day
Rat [14]
  LEL: 5 mg/kg/day
  LOAEL: 25 mg/kg/day
  NEL: < 5 mg/kg/day
  NOAEL: 5 mg/kg/day
Rat [15]; [43]
  LOAEL: 75 mg/kg/day
  NOAEL: 25 mg/kg/day
Rat [15]; [44]
  LEL: 5 mg/kg/day
  NEL: < 5 mg/kg/day
Rat [16]; [45]
  LEL: 75 mg/kg/day
  LOAEL: > 75 mg/kg/day
  NEL: 25 mg/kg/day
  NOAEL: ≥ 75 mg/kg/day
Rat [16]; [46]
  LOAEL: > 75 mg/kg/day
  NEL: 5 mg/kg/day
  NOAEL: ≥ 75 mg/kg/day
Rat [16]; group: maternal, reproductive / reproductive performance / preimplantation loss / preimplantation loss + systemic / in life observation / body weight / body …
  LEL: 25 mg/kg/day
Rat [17]
  LEL: 50 mg/kg/day
  LOAEL: 50 mg/kg/day
  NEL: 20 mg/kg/day
  NOAEL: 20 mg/kg/day
Dog [18]; [47]
  LEL: 1.5 mg/kg/day
  NEL: < 1.5 mg/kg/day
Dog [18]; [48]
  LOAEL: > 15 mg/kg/day
  NOAEL: ≥ 15 mg/kg/day
Rabbit [19]; [45]
  LEL: 30 mg/kg/day
  LOAEL: > 30 mg/kg/day
  NEL: 10 mg/kg/day
  NOAEL: ≥ 30 mg/kg/day
Rabbit [19]; [33]
  LEL: 10 mg/kg/day
  LOAEL: > 30 mg/kg/day
  NEL: 3 mg/kg/day
  NOAEL: ≥ 30 mg/kg/day
Dog [20]; [49]
  LOAEL: > 30 mg/kg/day
  NOAEL: ≥ 30 mg/kg/day
Dog [20]; [50]
  LEL: 3 mg/kg/day
  NEL: < 3 mg/kg/day
Rabbit [21]; [45]
  LEL: 24 mg/kg/day
  LOAEL: > 24 mg/kg/day
  NEL: 8 mg/kg/day
  NOAEL: ≥ 24 mg/kg/day
Rabbit [21]; [51]
  LEL: 3 mg/kg/day
  NEL: < 3 mg/kg/day
Rabbit [21]; [52]
  LOAEL: > 24 mg/kg/day
  NOAEL: ≥ 24 mg/kg/day
Dog [22]; [53]
  LEL: 5 mg/kg/day
  NEL: < 5 mg/kg/day
Dog [22]; [54]
  LOAEL: > 12.5 mg/kg/day
  NOAEL: ≥ 12.5 mg/kg/day
